Measurements from patent US12702689B2, “Anti-inflammatory compositions, and uses thereof” (P.L. THOMAS & CO., INC., priority 2022, dated 2026).

How the values were obtained:
[1] = system: airway reactivity to acetyl-β-methacholine chloride; assay: Airway hyperresponsiveness: total respiratory system resistance (Rrs) to methacholine, flexiVent; type: in vivo, BALB/cJ female mice; conditions: for total respiratory system resistance (Rrs) in response to methacholine: OVA+AKBA mice
From the text: Allergic airway phenotype was induced by using an ovalbumin (OVA, hen egg) sensitization and challenge model as previously described with modifications [Beigelman, A. et al. Azithromycin attenuates airway inflammation in a noninfectious mouse model of allergic asthma. Chest 136, 498-506 (2009)]. Briefly (FIG. 1), two groups of mice (OVA control and OVA+AKBA) were sensitized with intraperitoneal ovalbumin plus alum on days 0 and 7, challenged for 3 days (day 14 to day 17) via nebulized OVA at 1% in PBS for 30 mins, and harvested 48 hr after final challenge. Supplementation groups (OVA+AKBA) were given 100 mg/kg of water soluble AKBA (pH 7) (PLT Health Solutions, Morristown, NJ, US) in autoclaved mouse water, via gavage, every other day for 10 days and then every day for the remainder of the experiment (9 days). OVA control and naïve mouse continued to receive normal autoclaved mouse water. Mice were weighted at the beginning and end of the experiment. Experiments involving AKBA were conducted twice, with the first group containing 5 mice per group and the second containing 15 mice per group (5 per group for naive). Experiment procedures were identical, and results were pooled for n=20 (n=5 for naive). Animal protocol 102063-0522 was approved by the University of Connecticut Health IACUC board.
Airway reactivity was assessed based on total respiratory system resistance (Rrs) response to increasing doses (0-100 mg/ml) of acetyl-β-methacholine chloride (Sigma-Aldrich, St. Louis, MO). Mice were […] (150 mg/kg ketamine and 10 mg/kg xylazine), underwent tracheostomies and were mechanically ventilated using the flexiVent system (SCIREQ, Montreal, CA). Airway reactivity was determined by assessing forced oscillatory mechanics every 10 s for 4 min following each methacholine challenge.

[2] = Body weight change in OVA allergic airway model; type: in vivo, BALB/cJ female mice; conditions: OVA+AKBA mice, 100 mg/kg AKBA by gavage, beginning to end of experiment; mean±SD
From the text: Eight-week-old BALB/cJ female mice were purchased from the Jackson Laboratory (Bar Harbor, ME, US) and housed in plastic cages with corncob bedding at the University of Connecticut Health (Farmington, CT.). Animal rooms maintained a 12-h light/dark cycle and were pathogen free. Mice were fed a 18% protein rodent diet (18.6% protein, 6.2% fat, 44.2% carbohydrate, 3.5% soluble fiber, 14.7% total fiber, 5.3% ash) purchased from Envigo (Indianapolis, IN, US) and supplied autoclaved water. Allergic airway phenotype was induced by using an ovalbumin (OVA, hen egg) sensitization and challenge model as previously described with modifications [Beigelman, A. et al. Azithromycin attenuates airway inflammation in a noninfectious mouse model of allergic asthma. Chest 136, 498-506 (2009)]. Briefly (FIG. 1), two groups of mice (OVA control and OVA+AKBA) were sensitized with intraperitoneal ovalbumin plus alum on days 0 and 7, challenged for 3 days (day 14 to day 17) via nebulized OVA at 1% in PBS for 30 mins, and harvested 48 hr after final challenge. Supplementation groups (OVA+AKBA) were given 100 mg/kg of water soluble AKBA (pH 7) (PLT Health Solutions, Morristown, NJ, US) in autoclaved mouse water, via gavage, every other day for 10 days and then every day for the remainder of the experiment (9 days). OVA control and naïve mouse continued to receive normal autoclaved mouse water. […]

For CC(=O)O[C@@H]1CC[C@@]2(C)[C@@H](CC[C@]3(C)[C@@H]2C(=O)C=C2[C@@H]4[C@@H](C)[C@H](C)CC[C@]4(C)CC[C@]23C)[C@@]1(C)C(=O)O [AKBA, 3-O-acetyl-11-keto-b-boswellic acid], the “total respiratory system resistance (Rrs) in response to methacholine” value ([1]; methacholine 12.5 mg, p=0.02 vs OVA control) was 2.38±0.55, the “total respiratory system resistance (Rrs) in response to methacholine” value ([1]; methacholine 25 mg, p=0.04 vs OVA control) was 3.56±1.25 and the “difference in Rrs between OVA control and OVA+AKBA” value ([1]; higher methacholine concentrations (above 25 mg)) was “No significant difference”. For the same compound, the “difference in Rrs between all three groups” value ([1]; methacholine 0 mg/mL, ANOVA p=0.341) was “No significant difference” and the “total average weight change, % of starting weight” value [2] was −2.32±4.19%.
